Measurements reported in US20070167431A1, “Method for the treatment of cognitive dysfunction” (Wyeth, priority 2006, published 2007).
Entries after “also recorded” stand apart in the source; their conditions may differ. Read-outs that look alike come from different tables or passages of the source.

Key:
recognition memory = assay type: in vivo; settings: 48-hour interval
Description: In this evaluation, donepezil (Aricept) is used as the acetylcholinesterase inhibitor component and 3-(1-naphthylsulfonyl)-5-piperazin-1-yl-1H-indazole (Test Compound A) is used as the 5-HT6 component. Novel object recognition is a single trial non-aversive learning paradigm that utilizes the rodent's natural tendency to explore an unfamiliar object more than a familiar one. The learning phase of the paradigm consists of recording the amount of time a rat explores two identical objects it has never seen before during a 5-minute period. Following a 48-hour interval, during which the animal is returned to its homecage, the animal is placed back into the same environment now containing one of the original objects (familiar) and one never experienced before (novel). Recognition memory is reflected as an increase in time spent exploring the novel object relative to that spent exploring the familiar one. The amount of time each animal spends exploring the two objects during the memory trial is analyzed using a repeated-measures ANOVA. […] All treatments were administered prior to the first trial either orally (Test Compound A) or i.p. (Aricept).

[1] = system: acetylcholine release in dorsal hippocampus; experiment: Acetylcholine release in rat dorsal hippocampus, microdialysis; assay type: in vivo, Sprague Dawley rats; settings: rat dorsal hippocampus dialysate
Description: Male Sprague Dawley rats were anesthetized with halothane and secured in a stereotaxic frame to allow implantation of a microdialysis guide cannula above the dorsal hippocampus (coordinatesXXX; Paxinos & Watson 1986). The guide cannula was secured using dental acrylic and two small skull screws. Following surgery, animals were individually housed in microdialysis cages with free access to food and water. The following day a microdialysis probe was inserted via the guide cannula into the hippocampus. Probes were perfused with artificial cerebrospinal fluid at a flow rate of 0.5 μl/min. Dialysates were collected every 40 min and were put on dry ice immediately after collection for subsequent analysis. A 3 h stabilization period was allowed following probe insertion after which time baseline samples were collected for 120 min. Rats were then dosed with Aricept (0.5 mg/kg i.p.) or vehicle (saline, 1 ml/kg i.p.). […] Following dosing, dialysis samples were collected for 200 min. At the end of the experiment, animals were euthanized and probe placement was verified histologically. Data from animals with incorrect probe placement were discarded. Dialysates were analyzed for ACh content using LC/MS/MS.

[2] = biological target: T1, human cloned 5-HT6 receptors (Homo sapiens, UniProt P50406); experiment: 5-HT6 binding affinity, [3H]-LSD displacement on membranes of Hela cells
T1 construct: expressed in transfected cells; host or cells: Hela cells (membrane preparation)
T1 sequence (P50406 whole entry): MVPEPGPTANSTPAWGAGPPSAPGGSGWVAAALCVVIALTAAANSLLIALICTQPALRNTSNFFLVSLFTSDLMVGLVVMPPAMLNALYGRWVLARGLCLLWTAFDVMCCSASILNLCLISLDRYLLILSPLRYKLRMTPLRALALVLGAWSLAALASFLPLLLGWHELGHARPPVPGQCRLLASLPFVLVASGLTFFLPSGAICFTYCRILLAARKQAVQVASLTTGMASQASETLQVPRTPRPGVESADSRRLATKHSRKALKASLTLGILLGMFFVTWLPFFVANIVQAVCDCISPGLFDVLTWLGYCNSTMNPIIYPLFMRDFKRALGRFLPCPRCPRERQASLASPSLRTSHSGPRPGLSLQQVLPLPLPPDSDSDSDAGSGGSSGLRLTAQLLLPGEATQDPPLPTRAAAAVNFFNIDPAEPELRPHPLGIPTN
Experimental: The affinity of test compounds for the serotonin 5-HT6 receptor is evaluated in the following manner. Cultured Hela cells expressing human cloned 5-HT6 receptors are harvested and centrifuged at low speed (1,000×g) for 10.0 min to remove the culture media. The harvested cells are suspended in half volume of fresh physiological phosphate buffered saline solution and recentrifuged at the same speed. This operation is repeated. The collected cells are then homogenized in ten volumes of 50 mM Tris.HCl (pH 7.4) and 0.5 mM EDTA. The homogenate is centrifuged at 40,000×g for 30.0 min and the precipitate is collected. The obtained pellet is resuspended in 10 volumes of Tris.HCl buffer and recentrifuged at the same speed. The final pellet is suspended in a small volume of Tris.HCl buffer and the tissue protein content is determined in aliquots of 10-25 μl volumes. […] The volume of the suspended cell membranes is adjusted to give a tissue protein concentration of 1.0 mg/ml of suspension. The prepared membrane suspension (10 times concentrated) is aliquoted in 1.0 ml volumes and stored at −70° C. until used in subsequent binding experiments.
Binding experiments are performed in a 96 well microtiter plate format, in a total volume of 200 μl. […] The test compounds are added in 20.0 μl volume.
The bound complex caught on the filter disk is allowed to air dry and the radioactivity is measured in a Packard TopCount® equipped with six photomultiplier detectors, after the addition of 40.0 μl Microscint®-20 scintillant to each shallow well.
Binding in the presence of varying concentrations of test compound is expressed as a percentage of specific binding in the absence of test compound. The results are plotted as log % bound versus log concentration of test compound. […] A linear regression line of data points is plotted, from which the IC50 value is determined and the Ki value is determined based upon the following equation: […]
where L is the concentration of the radioactive ligand used and KD is the dissociation constant of the ligand for the receptor, both expressed in nM.

[3] = biological target: T2, human 5-HT6 receptor stabily transfected into HELA cells (Homo sapiens, UniProt P50406); experiment: 5-HT6 antagonist activity using cAMP accumulation; assay type: cell-based; settings: decrease of cAMP relative to serotonin (100 nM); 100% Imax indicates 0% intrinsic activity
T2 construct: expressed in transfected cells; host or cells: HELA cells, stably transfected
T2 sequence (P50406 whole entry): as above
Experimental: Intracellular cAMP levels are measured using 96-well plates containing the human 5-HT6 receptor stabily transfected into HELA cells. Upon initiation of the assay, the media from cell maintenance is aspirated and cells are preincubated at 37° C. for 15 mins. in KREBS buffer. Following this primary incubation, the buffer is aspirated and an additional incubation is performed at 37° C. for 5 mins. in KREBS buffer containing 500 uM IBMX (3-isobutyl-1-methylxanthine). Subsequently cells are incubated with test compound concentrations ranging from 10^-5 to 10^-10M for 10 minutes at 37° C. Serotonin (100 nM) is added to the treated cells and incubated for an additional 10 minutes at 37° C. The assay is terminated by the addition of 0.5M perchloric acid. Intracellular CAMP levels are determined by radioimmunoassay through the cAMP SPA screening kit. Data are analyzed graphically with GraphPad Prism (GraphPad Software, San Diego, Calif.). […] The value is recorded as Imax (%) and shown on Table I. (100% Imax indicates 0% intrinsic activity.)

[4] = 5-HT6 antagonist 1 mg/kg po alone

SMILES | Ki [2] [nM] | % Imax [3] [%] | retention for the familiar objects (novel object recognition) (recognition memory; [4]) | other results
COc1cc2c(cc1OC)C(=O)C(CC1CCN(Cc3ccccc3)CC1)C2 (centres unmarked) [Aricept, donepezil] | – | – | – | retention for the familiar objects (novel object recognition) (recognition memory; Aricept 0.5 mg/kg ip alone): neither Aricept (0.5 mg/kg, ip) nor Test Compound A (1 mg/kg, po) alone enhanced retention; also recorded: produced no enhancement of recognition memory; also recorded: neither Aricept (0.5 mg/kg, ip) alone nor Test Compound B (1 mg/kg, po) alone enhanced retention; retention for the familiar objects (novel object recognition) (recognition memory; Aricept alone): enhanced retention for the familiar objects; increase in acetylcholine concentration (change from baseline) ([1]; Aricept 0.5 mg/kg i.p. alone): 50%
COc1ccc2c3c1O[C@H]1C[C@@H](O)C=C[C@@]31CCN(C)C2 [Razadyne, galanthamine] | – | – | – | retention for the familiar objects (novel object recognition) (recognition memory; Razadyne 0. alone): neither Razadyne (0.1 mg/kg, ip) alone nor Test Compound B (1 mg/kg, po) alone enhanced retention
O=S(=O)(c1cccc2ccccc12)c1n[nH]c2ccc(N3CCNCC3)cc12 [Test Compound A, 3-(1-naphthylsulfonyl)-5-piperazin-1-yl-1H-indazole] | 1.1 | 100 | neither Aricept (0.5 mg/kg, ip) nor Test Compound A (1 mg/kg, po) alone enhanced retention | retention for the familiar objects (novel object recognition) (recognition memory; 5-HT6 antagonist 3 mg/kg po alone): enhanced retention for the familiar objects
CN(C)CCCOc1ccc2[nH]nc(S(=O)(=O)c3cccc4ccccc34)c2c1 [Test Compound B, N,N-dimethyl-3-{[3-(1-naphthylsulfonyl)-1H-indazol-5-yl]oxy}propan-1-amine] | – | – | neither Aricept (0.5 mg/kg, ip) alone nor Test Compound B (1 mg/kg, po) alone enhanced retention; also recorded: neither Razadyne (0.1 mg/kg, ip) alone nor Test Compound B (1 mg/kg, po) alone enhanced retention | effect on acetylcholine concentration (change from baseline) ([1]; Test Compound B 1 mg/kg p.o. alone): did not affect acetylcholine
NCCOc1cccc2c(S(=O)(=O)c3cccc4ccccc34)n[nH]c12 [Test Compound C, (2-{[3-(1-naphthylsulfonyl)-1H-indazol-7-yl]oxy}ethyl)amine] | 1.9 | 100 | – | –
O=S(=O)(c1ccccc1)n1ncc2c(N3CCNCC3)cccc21 [Test Compound D, 1-(phenylsulfonyl)-4-(1-piperazinyl)-1H-indazole] | 0.6 | 100 | – | –
